According to ChEMBL document CHEMBL1201862, “PubChem BioAssay data set” (2004):
Calls of active or inactive are those of the source.

How the values were obtained:
[1] = target: T1, Beta-2 adrenergic receptor (Homo sapiens, UniProt P07550); assay: beta2AR agonists driving receptor internalization, dose response, cell-based, FAP fluorogen, flow cytometry, cherry pick 1 (AID 588763); type: functional
[2] = target: T1, Beta-2 adrenergic receptor; assay: Dose response for HTS for Beta-2AR agonists via FAP method from Powderset3.; type: functional
Albumin = Albumin (Bos taurus, UniProt P02769); assay: Counterscreen for inhibitors of T-cell receptor (TCR)-CD3 interaction: Fluorescence-based biochemical high throughput dose response assay to identify inhibitors of T-cell receptor (TCR)-CD3 interaction using a TAMRA-labeled BSA probe.; type: functional
[3] = Counterscreen for AddAB inhibitors: absorbance-based bacterial cell-based high throughput dose response assay for inhibitors of bacterial viability. [Related pubchem assays (depositor defined):AID435030, AID449728, AID449731, AID488942, AID488955, AID488956]; type: functional
Exodeoxyribonuclease V = target: T2, Exodeoxyribonuclease V (Escherichia coli (strain K12), UniProt P04993+P07648+P08394); assay: E. coli RecBCD inhibitors, dose response, counter-screen for AddAB inhibitor project, absorbance, V66 E. coli, mutant T4 phage (AID 492957); type: functional, cell-based, Escherichia coli str. K-12 substr. MG1655
T2 sequence (P04993 whole entry): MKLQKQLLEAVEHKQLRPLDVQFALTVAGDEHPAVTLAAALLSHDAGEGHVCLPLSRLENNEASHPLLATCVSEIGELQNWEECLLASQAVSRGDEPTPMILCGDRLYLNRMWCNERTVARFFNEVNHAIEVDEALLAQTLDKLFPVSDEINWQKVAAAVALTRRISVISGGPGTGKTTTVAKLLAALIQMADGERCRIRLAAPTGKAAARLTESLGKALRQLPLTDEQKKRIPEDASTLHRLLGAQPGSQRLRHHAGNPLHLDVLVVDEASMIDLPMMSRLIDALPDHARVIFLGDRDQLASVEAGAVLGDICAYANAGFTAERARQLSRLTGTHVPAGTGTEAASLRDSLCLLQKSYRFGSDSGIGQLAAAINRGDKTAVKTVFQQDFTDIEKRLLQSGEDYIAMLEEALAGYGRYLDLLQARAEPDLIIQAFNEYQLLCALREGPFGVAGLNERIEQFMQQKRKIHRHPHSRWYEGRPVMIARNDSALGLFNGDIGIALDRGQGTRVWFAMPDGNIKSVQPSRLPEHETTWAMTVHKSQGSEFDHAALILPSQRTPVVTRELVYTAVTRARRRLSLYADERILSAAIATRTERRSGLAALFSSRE
T2 sequence (P07648 whole entry): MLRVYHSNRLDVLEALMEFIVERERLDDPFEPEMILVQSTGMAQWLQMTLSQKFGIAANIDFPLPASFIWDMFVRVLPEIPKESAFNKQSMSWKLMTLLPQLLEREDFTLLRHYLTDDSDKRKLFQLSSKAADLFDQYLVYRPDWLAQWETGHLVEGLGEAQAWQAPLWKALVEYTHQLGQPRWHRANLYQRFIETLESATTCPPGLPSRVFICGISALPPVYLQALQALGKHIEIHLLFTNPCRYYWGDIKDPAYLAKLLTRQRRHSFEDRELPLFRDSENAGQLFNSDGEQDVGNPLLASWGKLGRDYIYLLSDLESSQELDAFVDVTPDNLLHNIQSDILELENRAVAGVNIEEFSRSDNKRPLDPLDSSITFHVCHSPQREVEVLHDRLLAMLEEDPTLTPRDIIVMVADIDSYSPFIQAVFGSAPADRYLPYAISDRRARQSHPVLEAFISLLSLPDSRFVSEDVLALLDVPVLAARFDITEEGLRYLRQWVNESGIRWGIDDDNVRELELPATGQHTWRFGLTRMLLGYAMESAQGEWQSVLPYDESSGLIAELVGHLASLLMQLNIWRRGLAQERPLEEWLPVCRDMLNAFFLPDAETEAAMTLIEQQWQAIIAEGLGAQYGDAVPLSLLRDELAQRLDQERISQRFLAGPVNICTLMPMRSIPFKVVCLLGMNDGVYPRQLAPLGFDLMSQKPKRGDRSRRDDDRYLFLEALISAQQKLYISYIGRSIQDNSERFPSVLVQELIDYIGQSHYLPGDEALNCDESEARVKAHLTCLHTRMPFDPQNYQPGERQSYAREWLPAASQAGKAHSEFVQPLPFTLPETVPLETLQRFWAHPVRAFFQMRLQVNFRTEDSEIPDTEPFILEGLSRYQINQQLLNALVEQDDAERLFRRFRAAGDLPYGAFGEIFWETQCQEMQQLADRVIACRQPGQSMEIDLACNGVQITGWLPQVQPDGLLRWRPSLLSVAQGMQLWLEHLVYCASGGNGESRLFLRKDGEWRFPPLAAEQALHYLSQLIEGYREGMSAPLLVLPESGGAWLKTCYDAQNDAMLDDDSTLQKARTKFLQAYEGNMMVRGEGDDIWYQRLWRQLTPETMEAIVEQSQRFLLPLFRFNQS
T2 sequence (P08394 whole entry): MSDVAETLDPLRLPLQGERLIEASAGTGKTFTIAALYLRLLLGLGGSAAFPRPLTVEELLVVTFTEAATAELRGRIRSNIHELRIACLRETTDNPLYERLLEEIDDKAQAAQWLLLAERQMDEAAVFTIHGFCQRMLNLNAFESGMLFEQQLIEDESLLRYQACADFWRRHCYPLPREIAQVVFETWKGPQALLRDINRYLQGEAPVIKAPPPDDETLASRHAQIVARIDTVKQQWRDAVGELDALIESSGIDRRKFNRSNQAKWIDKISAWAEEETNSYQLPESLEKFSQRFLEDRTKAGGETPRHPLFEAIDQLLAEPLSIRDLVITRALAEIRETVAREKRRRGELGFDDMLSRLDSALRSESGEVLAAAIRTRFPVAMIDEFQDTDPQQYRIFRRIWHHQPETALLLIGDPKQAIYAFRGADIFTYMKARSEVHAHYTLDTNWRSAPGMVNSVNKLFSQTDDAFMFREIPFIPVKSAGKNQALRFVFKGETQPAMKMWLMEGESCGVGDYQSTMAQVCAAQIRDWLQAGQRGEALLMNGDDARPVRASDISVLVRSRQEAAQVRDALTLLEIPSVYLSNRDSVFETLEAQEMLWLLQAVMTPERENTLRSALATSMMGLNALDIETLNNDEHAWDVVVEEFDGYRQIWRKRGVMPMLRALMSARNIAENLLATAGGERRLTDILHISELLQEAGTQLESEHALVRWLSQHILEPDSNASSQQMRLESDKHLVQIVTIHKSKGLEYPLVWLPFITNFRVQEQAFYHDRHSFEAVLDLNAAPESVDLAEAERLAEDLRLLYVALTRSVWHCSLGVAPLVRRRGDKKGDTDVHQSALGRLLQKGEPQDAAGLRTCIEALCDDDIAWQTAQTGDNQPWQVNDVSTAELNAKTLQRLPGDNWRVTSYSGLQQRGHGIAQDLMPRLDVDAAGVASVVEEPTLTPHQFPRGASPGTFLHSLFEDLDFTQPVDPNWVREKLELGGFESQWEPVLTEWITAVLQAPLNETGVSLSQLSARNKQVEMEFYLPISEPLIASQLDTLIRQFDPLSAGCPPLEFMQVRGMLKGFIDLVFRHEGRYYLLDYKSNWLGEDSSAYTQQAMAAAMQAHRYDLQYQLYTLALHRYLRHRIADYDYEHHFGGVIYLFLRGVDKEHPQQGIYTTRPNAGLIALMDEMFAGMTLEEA

[4] = target: Fructose-bisphosphate aldolase (Mycobacterium tuberculosis, UniProt P9WQA3); assay: Fluorescence-based biochemical high throughput dose response assay for inhibitors of the fructose-bisphosphate aldolase (FBA) of M. tuberculosis.; type: functional
Streptokinase A = target: T3, Streptokinase A (Streptococcus pyogenes serotype M1, UniProt P10520); assay: S. pyogenes streptokinase expression inhibitors, potency, dose response, plasminogen activation absorbance, OD405 (AID 1914); type: functional, Streptococcus pyogenes M1 GAS;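 further: secreted streptokinase activity via plasminogen activation per viability signal from cell pellet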
T3 sequence (P10520 whole entry): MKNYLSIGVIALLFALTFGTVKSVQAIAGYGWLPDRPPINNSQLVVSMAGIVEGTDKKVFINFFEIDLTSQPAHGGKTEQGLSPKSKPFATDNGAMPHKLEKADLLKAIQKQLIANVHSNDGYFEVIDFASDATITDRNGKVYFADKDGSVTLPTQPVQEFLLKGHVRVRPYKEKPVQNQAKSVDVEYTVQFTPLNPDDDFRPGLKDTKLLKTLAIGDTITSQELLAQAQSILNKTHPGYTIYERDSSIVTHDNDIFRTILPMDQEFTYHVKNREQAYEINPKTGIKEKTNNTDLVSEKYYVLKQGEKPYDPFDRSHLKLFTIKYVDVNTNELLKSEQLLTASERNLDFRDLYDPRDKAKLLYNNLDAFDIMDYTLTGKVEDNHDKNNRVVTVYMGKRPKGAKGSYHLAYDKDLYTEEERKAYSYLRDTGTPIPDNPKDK

[5] = target: T4, Probable nicotinate-nucleotide adenylyltransferase (Staphylococcus aureus (strain N315), UniProt P65502); type: functional, Staphylococcus aureus subsp. aureus N315; details: read-out: IC50_Mean;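 on IC50 Mean: confirmatory dose-response retesting of NadD inhibitor hits first found in an ultra-high-throughput screen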
Streptococcus = assay: Group A Streptococcus viability loss, dose response, counter-screen for streptokinase expression inhibitor project, luminescence, BacTiterGlo (AID 1915); type: functional, organism-based;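 further: potency for reduction of bacterial viability or growth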
[6] = target: T4, Probable nicotinate-nucleotide adenylyltransferase; type: functional, Staphylococcus aureus subsp. aureus N315
[7] = system: Streptococcus sp. 'group A'; assay: growth inhibition of control SK(-) GAS strain, dose response, counter-screen for streptokinase expression inhibitor project, luminescence, kanamycin, BacTiterGlo, confirmation (AID 1900); type: functional, organism-based
[8] = target: T5, Rac GTPase-activating protein 1 (Homo sapiens, UniProt Q9H0H5); assay: MgcRacGAP GTPase-activating activity inhibitors, confirmation, biochemical, ADP Hunter fluorescence, primary and confirmatory (AID 624330); type: functional
T5 sequence (Q9H0H5 whole entry): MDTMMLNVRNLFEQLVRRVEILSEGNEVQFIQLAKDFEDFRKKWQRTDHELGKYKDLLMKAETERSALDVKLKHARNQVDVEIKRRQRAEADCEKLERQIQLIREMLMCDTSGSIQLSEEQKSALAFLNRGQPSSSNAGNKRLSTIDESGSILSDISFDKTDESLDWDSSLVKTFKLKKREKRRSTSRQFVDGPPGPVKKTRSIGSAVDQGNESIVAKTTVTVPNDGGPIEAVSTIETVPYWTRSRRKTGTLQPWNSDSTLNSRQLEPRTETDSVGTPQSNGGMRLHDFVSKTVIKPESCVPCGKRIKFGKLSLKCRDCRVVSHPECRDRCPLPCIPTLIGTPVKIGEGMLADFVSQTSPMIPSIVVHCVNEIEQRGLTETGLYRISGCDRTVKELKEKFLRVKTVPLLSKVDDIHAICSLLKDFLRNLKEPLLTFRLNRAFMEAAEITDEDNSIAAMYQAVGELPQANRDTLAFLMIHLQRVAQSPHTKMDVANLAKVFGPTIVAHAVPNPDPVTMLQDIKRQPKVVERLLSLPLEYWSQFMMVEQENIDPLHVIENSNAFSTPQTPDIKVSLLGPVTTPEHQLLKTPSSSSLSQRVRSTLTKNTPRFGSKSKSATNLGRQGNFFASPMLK

[9] = HeLa cell cytotoxicity, dose response, cytotoxicity control for MgcRacGAP inhibitor project (AID 624300); type: functional
Nonstructural protein 1 = Nonstructural protein 1 (Influenza A virus, UniProt Q194T2); type: functional, Influenza A virus (A/California/07/2009(H1N1))
[10] = HEK293 cell viability, dose response, counter-screen for EBV LMP1 inhibitor project, dry powder, set 2 (AID 624374); type: functional
[11] = inhibitors of TNFa-stimulated NF-kB luciferase reporter, dose response, selectivity assay for EBV LMP1 NF-kB inhibitor project, HEK293 LMP1 reporter cells, dry powder, set 2 (AID 624369); type: functional
Protein S100-A4 = Protein S100-A4 (Homo sapiens, UniProt P26447); assay: S100A4-myosin IIA binding inhibitor potency, dose response, biochemical, fluorescence polarization, cherry-picked hits (AID 687001); type: functional
HeLa = assay: HeLa cell cytotoxicity, dose response, cytotoxicity control, ATP luminescence, cherry-pick samples (AID 687004); type: functional, cell-based; details: Homo sapiens
Protein Wnt-3a = Protein Wnt-3a (Mus musculus, UniProt P27467); assay: SAR analysis of small molecule antagonists of Gli-SUFU in a Wnt3a luminescent reporter assay.; type: functional
[12] = HepG2 cell cytotoxicity, dose response, cytotoxicity control, cherry-picks, set 5 (AID 1053118); type: functional, cell-based

T4 sequence (P65502 whole entry): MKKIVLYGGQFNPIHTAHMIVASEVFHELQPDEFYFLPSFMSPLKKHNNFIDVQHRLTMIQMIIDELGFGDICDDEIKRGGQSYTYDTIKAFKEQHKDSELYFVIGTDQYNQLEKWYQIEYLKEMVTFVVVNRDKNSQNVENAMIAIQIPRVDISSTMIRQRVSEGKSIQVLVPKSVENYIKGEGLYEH
T1 sequence (P07550 whole entry): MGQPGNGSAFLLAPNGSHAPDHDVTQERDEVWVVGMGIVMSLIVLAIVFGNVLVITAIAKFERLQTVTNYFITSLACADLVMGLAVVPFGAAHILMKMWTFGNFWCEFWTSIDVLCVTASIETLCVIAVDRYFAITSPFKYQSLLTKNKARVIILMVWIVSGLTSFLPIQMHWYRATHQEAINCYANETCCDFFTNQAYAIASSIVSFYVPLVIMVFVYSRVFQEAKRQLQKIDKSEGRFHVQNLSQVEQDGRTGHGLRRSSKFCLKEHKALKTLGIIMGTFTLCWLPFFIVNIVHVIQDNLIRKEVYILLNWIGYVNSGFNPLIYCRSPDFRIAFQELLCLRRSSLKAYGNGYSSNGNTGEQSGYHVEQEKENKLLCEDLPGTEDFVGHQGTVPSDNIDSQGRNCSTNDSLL
Albumin, sequence (P02769 whole entry): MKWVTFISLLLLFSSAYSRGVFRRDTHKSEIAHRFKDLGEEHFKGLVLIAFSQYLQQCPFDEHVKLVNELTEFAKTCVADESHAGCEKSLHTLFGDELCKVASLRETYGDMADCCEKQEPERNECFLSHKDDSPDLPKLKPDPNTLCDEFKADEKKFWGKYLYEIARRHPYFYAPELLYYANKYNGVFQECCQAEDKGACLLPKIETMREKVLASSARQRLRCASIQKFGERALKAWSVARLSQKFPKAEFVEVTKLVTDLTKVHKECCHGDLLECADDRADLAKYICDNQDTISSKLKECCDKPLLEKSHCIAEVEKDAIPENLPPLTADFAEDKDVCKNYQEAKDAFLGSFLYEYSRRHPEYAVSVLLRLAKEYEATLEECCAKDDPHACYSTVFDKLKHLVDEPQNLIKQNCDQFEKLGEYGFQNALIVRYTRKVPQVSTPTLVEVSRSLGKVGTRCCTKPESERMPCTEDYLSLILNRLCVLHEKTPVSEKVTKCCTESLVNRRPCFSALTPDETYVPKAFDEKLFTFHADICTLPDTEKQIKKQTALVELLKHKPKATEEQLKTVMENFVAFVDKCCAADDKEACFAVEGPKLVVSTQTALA
Fructose-bisphosphate aldolase, sequence (P9WQA3 whole entry): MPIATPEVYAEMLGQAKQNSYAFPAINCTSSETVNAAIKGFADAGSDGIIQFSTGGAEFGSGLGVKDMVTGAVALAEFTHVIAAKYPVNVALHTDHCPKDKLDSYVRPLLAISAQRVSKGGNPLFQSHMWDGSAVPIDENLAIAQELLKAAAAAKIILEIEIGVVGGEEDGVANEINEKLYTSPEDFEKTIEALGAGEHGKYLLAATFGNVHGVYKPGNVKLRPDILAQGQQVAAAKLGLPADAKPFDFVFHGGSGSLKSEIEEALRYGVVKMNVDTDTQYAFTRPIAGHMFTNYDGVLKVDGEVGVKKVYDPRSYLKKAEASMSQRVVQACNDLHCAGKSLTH
Protein Wnt-3a, sequence (P27467 whole entry): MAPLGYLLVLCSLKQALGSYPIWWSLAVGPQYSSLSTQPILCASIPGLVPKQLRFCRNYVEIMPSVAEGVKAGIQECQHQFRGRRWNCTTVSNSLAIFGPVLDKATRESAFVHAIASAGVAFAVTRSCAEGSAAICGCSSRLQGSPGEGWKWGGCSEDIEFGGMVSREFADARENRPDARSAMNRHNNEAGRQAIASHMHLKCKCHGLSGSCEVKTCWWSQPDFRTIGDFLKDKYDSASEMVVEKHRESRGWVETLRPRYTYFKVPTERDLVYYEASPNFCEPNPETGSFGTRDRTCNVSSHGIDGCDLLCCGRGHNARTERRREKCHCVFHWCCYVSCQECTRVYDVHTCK
Protein S100-A4, sequence (P26447 whole entry): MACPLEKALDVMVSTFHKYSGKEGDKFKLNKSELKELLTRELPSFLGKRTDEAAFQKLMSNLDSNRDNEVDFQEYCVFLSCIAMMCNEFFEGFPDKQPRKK
Nonstructural protein 1, sequence (Q194T2 whole entry): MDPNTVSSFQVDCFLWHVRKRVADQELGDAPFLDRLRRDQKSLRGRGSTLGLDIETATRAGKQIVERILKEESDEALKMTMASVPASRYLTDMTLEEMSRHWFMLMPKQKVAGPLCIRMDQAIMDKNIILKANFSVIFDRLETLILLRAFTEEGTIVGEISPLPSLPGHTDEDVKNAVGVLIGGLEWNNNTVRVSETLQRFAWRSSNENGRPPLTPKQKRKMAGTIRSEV

Cc1ccc(OCc2cc(C(=O)N(C)Cc3cnn(-c4ccccc4C)c3)no2)cn1
EC50 [1]: 0.305 µM (active)
EC50 [2]: 0.0555 µM (active)

O=C(NNC(=O)C1CCN(S(=O)(=O)c2ccccc2C(F)(F)F)CC1)c1ccccc1O
IC50 (Albumin): > 94.1 µM (inactive)
IC50 [3]: > 119 µM (inactive)
IC50 (Exodeoxyribonuclease V): > 119 µM (inactive)

COc1ccc2nc(NCCCNC(=O)c3cc(OC)c(OC)c(OC)c3)c(C#N)cc2c1
IC50 [4]: 1.78 µM (active)

Cc1c(C(=O)NNC(=O)c2ccccc2O)oc2ccc(Br)cc12
EC50 (Streptokinase A): > 150 µM (not active)
IC50 [5]: 45.8 µM (active)
IC50 [3]: > 119 µM (inactive)
EC50 (Streptococcus): 8.5 µM (active)
IC50 [6]: 15.3 µM (active)
EC50 [7]: 8.43 µM (active)
IC50 (Exodeoxyribonuclease V): > 119 µM (inactive)

CN(C)c1ccc(C=c2c3ccccc3n3c2cc(-c2ccc(Cl)cc2)[n+]3C)cc1
IC50 [8]: 44.9 µM (active)
CC50 [9]: 18.9 µM (active)
IC50 (Nonstructural protein 1): 5.85 µM (active)

COc1cccc(C#Cc2ccc([C@@H]3[C@@H](C#N)N(C(=O)c4ccccn4)[C@@H]3CO)cc2)c1
AbsAC35 [10]: 328.8 µM
AbsAC35 [11]: 84.96 µM

CSCc1cc(C(=O)NC2CC2)c(N)s1
AC50 (Protein S100-A4): 17.5 µM (active)

COc1cccc(S(=O)(=O)N2C[C@@H](O)COC[C@H]3O[C@H](CC(=O)Nc4ccccc4)CC[C@@H]32)c1
AC50 (HeLa): > 52 µM (inactive)

O=C(Nc1cc(N2CCCCC2)ncn1)c1ccco1
IC50 (Protein Wnt-3a): > 21.8 µM (inactive)

CO[C@H]1CN(C)C(=O)c2ccc(NC(=O)Nc3ccc(Cl)c(Cl)c3)cc2OC[C@H](C)NC[C@H]1C
AC50 [12]: 13.5 µM (active)
